ChEMBL document CHEMBL3102737, “Synthesis of novel pyrano[3,2-f]quinoline, phenanthroline derivatives and studies of their interactions with proteins: an application in mammalian cell imaging” (Eur J Med Chem, 2014)

System: HeLa
Assay: Protein binding in human HeLa cells at 1 mM incubated for 10 mins under dark by fluorescence microscopic analysis
Format: ADME, cell-based
Conditions: 1000 µM; call rule not given here

Compound	PB
CN1c2ccc3oc(=O)ccc3c2C(=O)CC1(C)C	Not Active
CCN1c2ccc3c(ccc(=O)n3C)c2C(=O)CC1(C)C	Active
CCN1c2ccc3c(ccc(=O)n3CC)c2C(=O)CC1(C)C	Active
CCN1c2ccc3oc(=O)ccc3c2C(=O)CC1(C)C	Active
CC1(C)CC(=O)c2c(ccc3oc(=O)ccc23)N1	Active
CN1c2ccc3c(ccc(=O)n3C)c2C(=O)CC1(C)C	Active
Cn1c(=O)ccc2c3c(ccc21)NC(C)(C)CC3=O	Not Active
CCn1c(=O)ccc2c3c(ccc21)N(C)C(C)(C)CC3=O	Active
CCn1c(=O)ccc2c3c(ccc21)NC(C)(C)CC3=O	Active
